The text below walks through data of ChEMBL document CHEMBL1140819, “Protected aminooxyprolines for expedited library synthesis: application to Tsg101-directed proline-oxime containing peptides” (Bioorg Med Chem Lett, 2008).

Each structure is given as a SMILES string. *1 amine or outer side, *2 acyl side, *3 side chain or, on linkers, in order; H or OH if unused. Where a SMILES comes first, the peptide text is derived from it. [ ]: non-standard residue; d: D form. The star is where a group is joined. ξ: configuration not given here. Fluorescein(5-NHCS) = O=C1OC2(c3ccc(O)cc3Oc3cc(O)ccc32)c2cc(NC(=S)*)ccc21; X34 = O=C([C@@H]1[C@@H](O/N=C\c2ccc([N+](=O)[O-])o2)CCN1[*:1])[*:2]; X47 = O=C([C@@H]1C[C@@H](O/N=C\c2ccc([N+](=O)[O-])o2)CN1[*:1])[*:2]; X48 = O=C([C@@H]1C[C@@H](O/N=C\c2c(F)c(F)c(F)c(F)c2F)CN1[*:1])[*:2]; X10 = O=C([C@@H]1C[C@H](O/N=C\c2c(F)c(F)c(F)c(F)c2F)CN1[*:1])[*:2]; X5 = CC(/C=N\O[C@@H]1C[C@@H](C(=O)[*:2])N([*:1])C1)=C\c1ccccc1; X27 = N#Cc1ccc(/C=N\O[C@@H]2C[C@@H](C(=O)[*:2])N([*:1])C2)cc1; X37 = O=C([C@@H]1C[C@@H](O/N=C\c2ccc(CO)o2)CN1[*:1])[*:2]; X42 = O=C([C@@H]1[C@@H](O/N=C\CCc2ccccc2)CCN1[*:1])[*:2]; X24 = O=C([C@@H]1[C@@H](O/N=C\c2ccccc2)CCN1[*:1])[*:2]; ξPip = O=C(O)C1CCCCN1; Ava = NCCCCC(=O)O

For the assay, the target named is T1, Tumor susceptibility gene 101 protein (Homo sapiens, UniProt Q99816).
T1 sequence (Q99816 whole entry): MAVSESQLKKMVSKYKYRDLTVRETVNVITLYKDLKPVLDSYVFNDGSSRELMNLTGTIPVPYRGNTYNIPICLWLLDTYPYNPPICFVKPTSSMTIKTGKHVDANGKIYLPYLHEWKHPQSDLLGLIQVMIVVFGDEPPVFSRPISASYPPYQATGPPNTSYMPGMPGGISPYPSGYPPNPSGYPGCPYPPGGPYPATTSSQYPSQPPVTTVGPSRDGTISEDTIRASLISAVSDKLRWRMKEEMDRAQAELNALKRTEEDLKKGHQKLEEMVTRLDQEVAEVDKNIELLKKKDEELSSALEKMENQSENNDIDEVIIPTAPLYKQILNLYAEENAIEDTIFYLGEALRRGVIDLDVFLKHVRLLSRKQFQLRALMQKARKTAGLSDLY
Kind of assay: Binding affinity to Tsg101.
As usually defined, the IC50 is the concentration that inhibits the measured activity by half. A high value points to a need for much substance. Take `C[C@H](NC(=O)[C@@H](NC(=O)[C@@H]1CCCN1C(=O)[C@H](CCC(=O)O)NC(=O)[C@@H]1CCCN1C(=O)CCCCNC(=S)Nc1ccc2c(c1)C1(OC2=O)c2ccc(O)cc2Oc2cc(O)ccc21)[C@@H](C)O)C(=O)N1CCCCC1C(=O)N1C[C@H](O/N=C\c2c(F)c(F)c(F)c(F)c2F)C[C@H]1C(=O)N[C@@H](CCC(=O)O)C(=O)N[C@@H](CCC(=O)O)C(N)=O` (some centres undefined) ({Fluorescein(5-NHCS)-Ava}-PEPTA[ξPip][X48]EE-NH2): the IC50 came out at 32 µM. Consider `C[C@H](NC(=O)[C@@H](NC(=O)[C@@H]1CCCN1C(=O)[C@H](CCC(=O)O)NC(=O)[C@@H]1CCCN1C(=O)CCCCNC(=S)Nc1ccc2c(c1)C1(OC2=O)c2ccc(O)cc2Oc2cc(O)ccc21)[C@@H](C)O)C(=O)N1CCCCC1C(=O)N1C[C@@H](O/N=C\c2c(F)c(F)c(F)c(F)c2F)C[C@H]1C(=O)N[C@@H](CCC(=O)O)C(=O)N[C@@H](CCC(=O)O)C(N)=O` (some centres undefined) ({Fluorescein(5-NHCS)-Ava}-PEPTA[ξPip][X10]EE-NH2), for which the IC50 is 139 µM. `C[C@H](NC(=O)[C@@H](NC(=O)[C@@H]1CCCN1C(=O)[C@H](CCC(=O)O)NC(=O)[C@@H]1CCCN1C(=O)CCCCNC(=S)Nc1ccc2c(c1)C1(OC2=O)c2ccc(O)cc2Oc2cc(O)ccc21)[C@@H](C)O)C(=O)N1CCCCC1C(=O)N1C[C@H](O/N=C\c2ccc(C#N)cc2)C[C@H]1C(=O)N[C@@H](CCC(=O)O)C(=O)N[C@@H](CCC(=O)O)C(N)=O` (some centres undefined) ({Fluorescein(5-NHCS)-Ava}-PEPTA[ξPip][X27]EE-NH2) came in with an IC50 of 20 µM. Next, `C[C@H](NC(=O)[C@@H](NC(=O)[C@@H]1CCCN1C(=O)[C@H](CCC(=O)O)NC(=O)[C@@H]1CCCN1C(=O)CCCCNC(=S)Nc1ccc2c(c1)C1(OC2=O)c2ccc(O)cc2Oc2cc(O)ccc21)[C@@H](C)O)C(=O)N1CCCCC1C(=O)N1CC[C@H](O/N=C\CCc2ccccc2)[C@H]1C(=O)N[C@@H](CCC(=O)O)C(=O)N[C@@H](CCC(=O)O)C(N)=O` (some centres undefined) ({Fluorescein(5-NHCS)-Ava}-PEPTA[ξPip][X42]EE-NH2): 20 µM; `C[C@H](NC(=O)[C@@H](NC(=O)[C@@H]1CCCN1C(=O)[C@H](CCC(=O)O)NC(=O)[C@@H]1CCCN1C(=O)CCCCNC(=S)Nc1ccc2c(c1)C1(OC2=O)c2ccc(O)cc2Oc2cc(O)ccc21)[C@@H](C)O)C(=O)N1CCCCC1C(=O)N1C[C@H](O/N=C\c2ccc([N+](=O)[O-])o2)C[C@H]1C(=O)N[C@@H](CCC(=O)O)C(=O)N[C@@H](CCC(=O)O)C(N)=O` (some centres undefined) ({Fluorescein(5-NHCS)-Ava}-PEPTA[ξPip][X47]EE-NH2): 12 µM.

With `C[C@H](NC(=O)[C@@H](NC(=O)[C@@H]1CCCN1C(=O)[C@H](CCC(=O)O)NC(=O)[C@@H]1CCCN1C(=O)CCCCNC(=S)Nc1ccc2c(c1)C1(OC2=O)c2ccc(O)cc2Oc2cc(O)ccc21)[C@@H](C)O)C(=O)N1CCCCC1C(=O)N1C[C@H](O/N=C\c2ccc(CO)o2)C[C@H]1C(=O)N[C@@H](CCC(=O)O)C(=O)N[C@@H](CCC(=O)O)C(N)=O` (some centres undefined) ({Fluorescein(5-NHCS)-Ava}-PEPTA[ξPip][X37]EE-NH2), the IC50 turned out to be 26 µM. This IC50 is about 2.2-fold higher than that of the compound before. In turn, `C[C@H](NC(=O)[C@@H](NC(=O)[C@@H]1CCCN1C(=O)[C@H](CCC(=O)O)NC(=O)[C@@H]1CCCN1C(=O)CCCCNC(=S)Nc1ccc2c(c1)C1(OC2=O)c2ccc(O)cc2Oc2cc(O)ccc21)[C@@H](C)O)C(=O)N1CCCCC1C(=O)N1CC[C@H](O/N=C\c2ccc([N+](=O)[O-])o2)[C@H]1C(=O)N[C@@H](CCC(=O)O)C(=O)N[C@@H](CCC(=O)O)C(N)=O` (some centres undefined) ({Fluorescein(5-NHCS)-Ava}-PEPTA[ξPip][X34]EE-NH2) gave an IC50 of 18 µM.

`C[C@H](NC(=O)[C@@H](NC(=O)[C@@H]1CCCN1C(=O)[C@H](CCC(=O)O)NC(=O)[C@@H]1CCCN1C(=O)CCCCNC(=S)Nc1ccc2c(c1)C1(OC2=O)c2ccc(O)cc2Oc2cc(O)ccc21)[C@@H](C)O)C(=O)N1CCCCC1C(=O)N1CC[C@H](O/N=C\c2ccccc2)[C@H]1C(=O)N[C@@H](CCC(=O)O)C(=O)N[C@@H](CCC(=O)O)C(N)=O` (some centres undefined) ({Fluorescein(5-NHCS)-Ava}-PEPTA[ξPip][X24]EE-NH2) gave an IC50 of 15 µM.

As to `CC(/C=N\O[C@@H]1C[C@@H](C(=O)N[C@@H](CCC(=O)O)C(=O)N[C@@H](CCC(=O)O)C(N)=O)N(C(=O)C2CCCCN2C(=O)[C@H](C)NC(=O)[C@@H](NC(=O)[C@@H]2CCCN2C(=O)[C@H](CCC(=O)O)NC(=O)[C@@H]2CCCN2C(=O)CCCCNC(=S)Nc2ccc3c(c2)C2(OC3=O)c3ccc(O)cc3Oc3cc(O)ccc32)[C@@H](C)O)C1)=C\c1ccccc1` (some centres undefined) ({Fluorescein(5-NHCS)-Ava}-PEPTA[ξPip][X5]EE-NH2), the 50% inhibitory concentration (IC50) was determined as 13 µM.
